Test results taken from patent US5238922A, “Inhibitors of farnesyl protein transferase” (Merck & Co., Inc., priority 1991, dated 1993).

Legend:
[1] = test system: Ras farnesylation in the v-ras cell line (viral Ha-ras p21); test: In vivo ras farnesylation assay (v-ras cell line); assay type: cell-based
Description: The cell line used in this assay was the v-ras line, which expressed viral Ha-ras p21. The assay was performed essentially as described in DeClue, J. E. et. al., Cancer Research 51, 712-717, (1991). Cells in 10 cm dishes at 50-75% confluency were treated with the test compound (final concentration of solvent, methanol or dimethyl sulfoxide, was 0.1%). After 4 hours at 37° C., the cells were labelled in 3 ml methionine-free DMEM supplemented with 10% regular DMEM, 2% fetal bovine serum and 400 μCi[^35 S]methionine (1000 Ci/mmol). After an additional 20 hours, the cells were lysed in 1 ml lysis buffer (1% NP40/20 mM HEPES, pH 7.5/5 mM MgCl2 /1 mM DTT/10 μg/ml aprotinen/2 μg/ml leupeptin/2 μg/ml antipain/0.5 mM PMSF) and the lysates cleared by centrifugation at 100,000×g for 45 min. Aliqouts of lysates containing equal numbers of acid-precipitable counts were bought to 1 ml with IP buffer (lysis buffer lacking DTT) and immunoprecipitated with the ras-specific monoclonal antibody Y13-259 (Furth, M. E. et. al., J. Virol. 43, 294-304, (1982)). Following a 2 hour antibody incubation at 4° C., 200 μl of a 25% suspension of protein A-Sepharose coated with rabbit anti rat IgG was added for 45 min. […]

[2] = target: T1, Farnesyl-protein transferase (FTase) from bovine brain (Bos taurus, UniProt P29702+P49355); test: In vitro inhibition of Ras Farnesyl Transferase; assay type: biochemical; details: partially purified bovine brain FTase; Ras-CVLS 3.5 μM, 0.25 μM [3H]FPP; read-out: IC50 (concentration of compound which gives 50% inhibition of FTase)
T1 construct: incubated with this partially purified enzyme preparation; from tissue; host or cells: bovine brain
Description: Farnesyl-protein transferase (FTase) from bovine brain was chromatographed on DEAE-Sephacel (Pharmacia, 0-0.8M NaCl gradient elution), N-octyl agarose (Sigma, 0-0.6M NaCl gradient elution),, and a mono Q HPLC column (Pharmacia, 0-0.3M NaCl gradient). Ras-CVLS at 3.5 μM, 0.25 μM [^3 H]FPP, and the indicated compounds were incubated with this partially purified enzyme preparation. The FTase data presented below is a measurement of the ability of the test compound to inhibit Ras farnesylation in vitro.

IC50 [2] | Compound | Inhibition of Ras Farnesylation in the v-ras cell line ([1]; at 10 μm test concentration) | Inhibition of Ras Farnesylation in the v-ras cell line ([1]; at 100 μm test concentration)
2000 nM | CCOC(=O)[C@H](CCSC)NC(=O)[C@H](Cc1ccccc1)NC(=O)[C@@H](NC[C@@H](N)CS)[C@@H](C)CC [N-(2(R)-amino-3-mercaptopropyl)isoleucyl-phenylalanyl-methionine ethyl ester] | 10% | –
7 nM | CSCC[C@H](NC(=O)[C@H](Cc1ccccc1)NC[C@@H](NC(=O)[C@@H](N)CS)C(C)C)C(=O)O [N-(3-methyl-2(S)-(cysteinylamino)but-1-yl)phenylalanyl-methionine] | – | –
4.7 nM | CC[C@H](C)[C@@H](CN[C@@H](Cc1ccccc1)C(=O)N[C@@H](CCSC)C(=O)O)NC[C@@H](N)CS [N-[2(S)-(2(R)-amino-3-mercaptopropylamino)-3(S)-methylpentyl]phenylalanyl-methionine] | – | 30%
